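Compound exposure: 48 hours, 5 concentrations, 96-well plates. Here, GI50 denotes the concentration required for 50% inhibition of growth.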 The source made the active and inactive calls. Cut-off read from the data, not from the text of the source: active = GI50 up to about 1.1 µM and inactive = higher.
How the values were obtained:
Test in all cases: inhibition of tumour cell growth, NCI panel, 48 h
HT-29 = test system: HT-29
UO-31 = test system: UO-31
LOX IMVI = test system: LOX IMVI
RPMI-8226 = test system: RPMI-8226
OVCAR-4 = test system: OVCAR-4
OVCAR-8 = test system: OVCAR-8
HOP-62 = test system: HOP-62
T47D = test system: T47D
BT-549 = test system: BT-549
HCT-15 = test system: HCT-15
SNB-75 = test system: SNB-75
NCI-H23 = test system: NCI-H23
K562 = test system: K562
COLO 205 = test system: COLO 205
U-251 = test system: U-251
Malme-3M = test system: Malme-3M
MOLT-4 = test system: MOLT-4
HL-60 = test system: HL-60
HOP-92 = test system: HOP-92

Measured: GI50

C/N=c1\sc2nc(C#N)c(C#N)nc2n1C
19.2 µM: HCT-15
inactive: HT-29 15.9 µM | UO-31 20.4 µM | LOX IMVI 17.8 µM | RPMI-8226 44.4 µM | OVCAR-4 22.9 µM | OVCAR-8 > 10 µM | HOP-62 23.4 µM | T47D 34 µM | BT-549 28.8 µM | SNB-75 19 µM | NCI-H23 18.3 µM | K562 25.6 µM | COLO 205 16.4 µM | U-251 22.4 µM | Malme-3M 17.6 µM | MOLT-4 22.8 µM | HL-60 10.9 µM | HOP-92 21.2 µM

Cc1cccc(C(C)C)c1NC(=O)C(=O)CC(=O)c1sc(Nc2ccccc2Cl)nc1C
30.9 µM: HCT-15
inactive: UO-31 18.9 µM | LOX IMVI 31.8 µM | RPMI-8226 13.3 µM | OVCAR-4 83.4 µM | HOP-62 > 100 µM | T47D 35.8 µM | BT-549 32.7 µM | SNB-75 21.7 µM | NCI-H23 35 µM | K562 > 10 µM | COLO 205 29.9 µM | U-251 23.1 µM | Malme-3M > 100 µM | MOLT-4 25.6 µM | HL-60 16.1 µM | HOP-92 10.4 µM

CCCC(=O)OCC1OC(n2cc(F)c(=O)[nH]c2=O)C(F)C1O (stereo not given)
inactive: HT-29 > 86.3 µM | UO-31 74.8 µM | LOX IMVI 11.4 µM | RPMI-8226 6.3 µM | OVCAR-4 > 100 µM | OVCAR-8 > 38.5 µM | HOP-62 4.57 µM | T47D > 100 µM | BT-549 13.9 µM | SNB-75 > 55 µM | NCI-H23 > 88.7 µM | K562 6.35 µM | COLO 205 24.5 µM | U-251 10.8 µM | Malme-3M > 80 µM | MOLT-4 > 35.6 µM | HL-60 > 100 µM | HOP-92 > 100 µM
> 84.7 µM: HCT-15

O=CN(O)CC(=O)O
inactive: HT-29 > 100 µM | UO-31 > 100 µM | LOX IMVI > 100 µM | RPMI-8226 > 100 µM | OVCAR-4 > 100 µM | OVCAR-8 > 100 µM | HOP-62 > 100 µM | T47D > 100 µM | BT-549 > 100 µM | SNB-75 > 100 µM | NCI-H23 > 100 µM | K562 > 100 µM | COLO 205 > 100 µM | U-251 > 100 µM | Malme-3M > 100 µM | MOLT-4 > 100 µM | HL-60 > 100 µM | HOP-92 > 100 µM
> 100 µM: HCT-15

CC(NNC(=O)c1cc[n+]([BH2-]C#N)cc1)C(F)(F)F (stereo not given)
inactive: HT-29 > 100 µM | UO-31 > 100 µM | LOX IMVI > 100 µM | RPMI-8226 > 100 µM | OVCAR-4 > 100 µM | OVCAR-8 > 100 µM | HOP-62 > 100 µM | T47D > 100 µM | BT-549 > 100 µM | SNB-75 > 100 µM | NCI-H23 > 100 µM | K562 > 100 µM | COLO 205 > 100 µM | U-251 > 100 µM | Malme-3M > 100 µM | MOLT-4 > 100 µM | HL-60 > 100 µM | HOP-92 > 100 µM
> 100 µM: HCT-15

CC1(C)CC[C@]2(C(=O)O)CC[C@]3(C)C(=CC[C@@H]4[C@@]5(C)C[C@H](O)[C@H](O)[C@@](C)(C(=O)O)[C@@H]5CC[C@]43C)[C@@H]2C1
inactive: HT-29 > 100 µM | UO-31 > 100 µM | LOX IMVI > 100 µM | RPMI-8226 > 86.9 µM | OVCAR-4 > 82.2 µM | OVCAR-8 > 100 µM | HOP-62 > 100 µM | T47D > 100 µM | BT-549 > 100 µM | SNB-75 > 100 µM | NCI-H23 > 100 µM | K562 78.3 µM | COLO 205 > 100 µM | U-251 > 100 µM | Malme-3M > 100 µM | MOLT-4 > 100 µM | HL-60 > 31.6 µM | HOP-92 > 100 µM
> 100 µM: HCT-15

CN(C)Cc1cc(C(=O)/C=C/c2ccccc2)cc(CN(C)C)c1O
inactive: HT-29 16.9 µM | UO-31 17.5 µM | LOX IMVI 5.14 µM | RPMI-8226 11.8 µM | OVCAR-4 20.4 µM | OVCAR-8 27 µM | HOP-62 32.4 µM | T47D 30.8 µM | BT-549 19.9 µM | SNB-75 24.9 µM | NCI-H23 28.1 µM | K562 14.2 µM | COLO 205 17.8 µM | U-251 35.3 µM | Malme-3M 22.6 µM | MOLT-4 16.8 µM | HL-60 15.5 µM | HOP-92 26.7 µM
30.3 µM: HCT-15

COC(=O)NCCc1n[nH]c2c1C(=O)C=C(Nc1ccccc1OC)C2=O
28.4 µM: HCT-15
inactive: HT-29 28.1 µM | UO-31 42.2 µM | LOX IMVI 23 µM | RPMI-8226 20.5 µM | OVCAR-4 16.8 µM | OVCAR-8 13.6 µM | HOP-62 83.4 µM | T47D 30.1 µM | BT-549 25 µM | SNB-75 28.2 µM | NCI-H23 16 µM | K562 30 µM | COLO 205 24.3 µM | U-251 24.8 µM | Malme-3M 14.2 µM | MOLT-4 21.8 µM | HL-60 21.8 µM | HOP-92 41.7 µM

Source: ChEMBL document CHEMBL1201862, “PubChem BioAssay data set” (2004)
